SMILES strings stand for the structures.

In the test the target is T1, JAK3 (recombinant human kinase domain; h-jak3(810-1124)) (Homo sapiens, UniProt P52333).
T1 construct: h-jak3(810- 1124)-sf9-c; made in house; host or cells: Sf9 insect cells
T1 sequence (P52333 810-1124): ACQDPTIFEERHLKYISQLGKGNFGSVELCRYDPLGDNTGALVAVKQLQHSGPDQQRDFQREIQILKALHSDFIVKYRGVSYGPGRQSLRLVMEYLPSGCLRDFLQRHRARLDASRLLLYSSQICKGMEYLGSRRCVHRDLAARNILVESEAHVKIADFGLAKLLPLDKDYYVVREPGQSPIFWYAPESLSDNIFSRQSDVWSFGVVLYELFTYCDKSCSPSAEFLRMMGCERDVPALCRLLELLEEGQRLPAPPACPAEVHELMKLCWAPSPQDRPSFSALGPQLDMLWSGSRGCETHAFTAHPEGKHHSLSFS
As to the kind of experiment: Determination of IC50 of Janus Kinase (JAK) inhibition: JAK3, radioactive end-point assay with 33P-ATP. It counts as biochemical. As to conditions: JAK3 kinase domain; ATP 1.5 uM, peptide 50 uM, 20 minutes, room temperature, 10% DMSO; read-out: Ic50 h-jak3(810-1124)-sf9-c:no additive.
For `CCCC[C@H](NC(=O)c1c[nH]c2ncc(C3CC3)nc12)C(C)(C)O` [Example I-49, 2-Cyclopropyl-5H-pyrrolo[2,3-b]pyrazine-7-carboxylic acid [(S)-1-(1-hydroxy-1-methyl-ethyl)-pentyl]-amide], the IC50 (commonly the concentration that inhibits the measured activity by half) turned out to be 453 nM.

With `CNC(=O)CNc1cnc2[nH]cc(C(=O)NCC(C)(C)CO)c2n1` [Example I-16], the IC50 is 459 nM.

As to `C[C@H](NC(=O)c1c[nH]c2ncc(-c3ccc(C(=O)NC4CCOCC4)s3)nc12)C(C)(C)C#N` [Example I-223, 2-[5-(Tetrahydro-pyran-4-ylcarbamoyl)-thiophen-2-yl]-5H-pyrrolo[2,3-b]pyrazine-7-carboxylic acid ((S)-2-cyano-1,2,2-trimethyl-ethyl)-amide], the 50% inhibitory concentration (IC50) turned out to be 0.91 nM. In the case of `CC[C@H](C)NC(=O)c1c[nH]c2ncc(Oc3ccc4c(c3)[C@H](NC(C)=O)CC4)nc12` [Example I-296, 2-((R)-3-Acetylamino-indan-5-yloxy)-5H-pyrrolo[2,3-b]pyrazine-7-carboxylic acid ((S)-sec-butyl)-amide] it was 22.9 nM; in that of `CCNC(=O)c1c[nH]c2ncc(Oc3cccc4ccccc34)nc12` [Example I-261, 2-(Naphthalen-1-yloxy)-5H-pyrrolo[2,3-b]pyrazine-7-carboxylic acid ethylamide], 2990 nM. As for `CC(C)NC(=O)c1c[nH]c2ncc(Oc3ccccc3Cl)nc12` [Example I-255, 2-(2-Chloro-phenoxy)-5H-pyrrolo[2,3-b]pyrazine-7-carboxylic acid isopropylamide], the figure is 382 nM; as for `C[C@@H](NC(=O)c1c[nH]c2ncc(C3CC3)nc12)C1(C#N)CCCCC1` [Example I-117, 2-Cyclopropyl-5H-pyrrolo[2,3-b]pyrazine-7-carboxylic acid [(R)-1-(1-cyano-cyclohexyl)-ethyl]-amide], 26.8 nM. As for `CS(=O)(=O)N1CCC(CNC(=O)c2c[nH]c3ncc(C4CC4)nc23)C1` (stereo not shown) [Example I-109, 2-Cyclopropyl-5H-pyrrolo[2,3-b]pyrazine-7-carboxylic acid (1-methanesulfonyl-pyrrolidin-3-ylmethyl)-amide], the figure is 231 nM; as for `C=Cc1cccc(-n2cnc(-c3cnc4[nH]cc(C(=O)N[C@@H](C)C(C)(C)C)c4n3)c2)c1` [Example I-163, 2-[1-(3-Vinyl-phenyl)-1H-imidazol-4-yl]-5H-pyrrolo[2,3-b]pyrazine-7-carboxylic acid ((S)-1,2,2-trimethyl-propyl)-amide], 3 nM. For the molecule `CC(C)NC(=O)c1ccc(-c2cnc3[nH]cc(C(=O)N[C@@H](C)C(C)(C)C)c3n2)s1` [Example I-156, 2-(5-Isopropyl-carbamoyl-thiophen-2-yl)-5H-pyrrolo[2,3-b]pyrazine-7-carboxylic acid ((S)-1,2,2-trimethyl-propyl)-amide], the IC50 was determined as 0.35 nM. In the case of `C[C@H](NC(=O)c1c[nH]c2ncc(-c3ccc(C(=O)N4CC5(COC5)C4)s3)nc12)C(C)(C)C` [Example I-217, 2-[5-(2-Oxa-6-aza-spiro[3.3]heptane-6-carbonyl)-thiophen-2-yl]-5H-pyrrolo[2,3-b]pyrazine-7-carboxylic acid ((S)-1,2,2-trimethyl-propyl)-amide] it was 0.11 nM; in that of `C[C@H](NC(=O)c1c[nH]c2ncc(-c3ccc(C(=O)NCc4ccccc4)s3)nc12)C(C)(C)C` [Example I-226, 2-(5-Benzylcarbamoyl-thiophen-2-yl)-5H-pyrrolo[2,3-b]pyrazine-7-carboxylic acid ((S)-1,2,2-trimethyl-propyl)-amide], 0.5 nM. As for `CC(C)NC(=O)c1c[nH]c2ncc(Oc3ccccc3Cc3ccccc3)nc12` [Example I-237, 2-(2-Benzyl-phenoxy)-5H-pyrrolo[2,3-b]pyrazine-7-carboxylic acid isopropylamide], the figure is 5360 nM. As to `C[C@@H](NC(=O)c1c[nH]c2ncc(-c3nccs3)nc12)C(C)(C)O` [Example I-111, 2-Thiazol-2-yl-5H-pyrrolo[2,3-b]pyrazine-7-carboxylic acid ((R)-2-hydroxy-1,2-dimethyl-propyl)-amide], the IC50 was found to be 276 nM. In the case of `CC(C)(O)C(C)(C)NC(=O)c1c[nH]c2ncc(C3CC3)nc12` [Example I-79, 2-Cyclopropyl-5H-pyrrolo[2,3-b]pyrazine-7-carboxylic acid (2-hydroxy-1,1,2-trimethyl-propyl)-amide] it was 40.7 nM.

As for `C[C@@H](NC(=O)c1c[nH]c2ncc(-c3cccs3)nc12)C(C)(C)O` [Example I-103, 2-Thiophen-2-yl-5H-pyrrolo[2,3-b]pyrazine-7-carboxylic acid ((R)-2-hydroxy-1,2-dimethyl-propyl)-amide], the half-inhibitory concentration (IC50) is 7.25 nM. As for `CC(C)(O)[C@@H](NC(=O)c1c[nH]c2ncc(C3CC3)nc12)C1CCCCC1` [Example I-94, 2-Cyclopropyl-5H-pyrrolo[2,3-b]pyrazine-7-carboxylic acid ((S)-1-cyclohexyl-2-hydroxy-2-methyl-propyl)-amide], the figure is 878 nM; as for `CC(C)NC(=O)c1c[nH]c2ncc(Oc3ccccc3OC(F)(F)F)nc12` [Example I-253, 2-(2-Trifluoromethoxy-phenoxy)-5H-pyrrolo[2,3-b]pyrazine-7-carboxylic acid isopropylamide], 2170 nM; as for `CCNC(=O)c1c[nH]c2ncc(Oc3ccc4c(c3)[C@H](NC(C)=O)CC4)nc12` [Example I-271, 2-((R)-3-Acetylamino-indan-5-yloxy)-5H-pyrrolo[2,3-b]pyrazine-7-carboxylic acid ethylamide], 1270 nM. Regarding `C[C@H](NC(=O)c1c[nH]c2ncc(-c3ccc(C(=O)N4CCN(C)CC4)s3)nc12)C(C)(C)C` [Example I-161, 2-[5-(4-Methyl-piperazine-1-carbonyl)-thiophen-2-yl]-5H-pyrrolo[2,3-b]pyrazine-7-carboxylic acid ((S)-1,2,2-trimethyl-propyl)-amide], the IC50 came out at 0.32 nM.

With `COC[C@H](NC(=O)c1c[nH]c2ncc(C3CC3)nc12)C(C)(C)C` [Example I-64, 2-Cyclopropyl-5H-pyrrolo[2,3-b]pyrazine-7-carboxylic acid ((R)-1-methoxymethyl-2,2-dimethyl-propyl)-amide], the half-maximal inhibitory concentration (IC50) worked out at 35.1 nM. In the case of `Cc1cccc(-n2cnc(-c3cnc4[nH]cc(C(=O)N[C@@H](C)C(C)(C)C)c4n3)c2)c1` [Example I-150, 2-(1-m-Tolyl-1H-imidazol-4-yl)-5H-pyrrolo[2,3-b]pyrazine-7-carboxylic acid ((S)-1,2,2-trimethyl-propyl)-amide] it was 5.12 nM; in that of `CC(C)[C@H](NC(=O)c1c[nH]c2ncc(C3CC3)nc12)C(C)(C)O` [Example I-24, 2-Cyclopropyl-5H-pyrrolo[2,3-b]pyrazine-7-carboxylic acid ((S)-2-hydroxy-1-isopropyl-2-methyl-propyl)-amide], 180 nM; in that of `C[C@H](NC(=O)c1c[nH]c2ncc(C3CC3)nc12)c1ccccc1` [Example I-67, 2-Cyclopropyl-5H-pyrrolo[2,3-b]pyrazine-7-carboxylic acid ((S)-1-phenyl-ethyl)-amide], 427 nM.

In the case of `CC(C)(C)[C@H](CO)NC(=O)c1c[nH]c2ncc(C3CC3)nc12` [Example I-52, 2-Cyclopropyl-5H-pyrrolo[2,3-b]pyrazine-7-carboxylic acid ((R)-1-hydroxymethyl-2,2-dimethyl-propyl)-amide], the IC50 was found to be 11.1 nM.

Take `C[C@H](NC(=O)c1c[nH]c2ncc(-c3ccc(C(=O)NCc4ccncc4)s3)nc12)C(C)(C)C` [Example I-165, 2-{5-[(Pyridin-4-ylmethyl)-carbamoyl]-thiophen-2-yl}-5H-pyrrolo[2,3-b]pyrazine-7-carboxylic acid ((S)-1,2,2-trimethyl-propyl)-amide]: the IC50 stood at 0.17 nM. As for `CCNC(=O)c1c[nH]c2ncc(Oc3cccc(C)c3)nc12` [Example I-248, 2-m-Tolyloxy-5H-pyrrolo[2,3-b]pyrazine-7-carboxylic acid ethylamide], the IC50 amounted to 1030 nM. In the case of `CC(C)NC(=O)c1c[nH]c2ncc(Oc3ccc4c(c3)[C@H](NC(N)=O)CC4)nc12` [Example I-299, 2-((R)-3-Ureido-indan-5-yloxy)-5H-pyrrolo[2,3-b]pyrazine-7-carboxylic acid isopropylamide] it was 143 nM. As for `CC(C)(C)[C@@H](CO)NC(=O)c1c[nH]c2ncc(C3CC3)nc12` [Example I-47, 2-Cyclopropyl-5H-pyrrolo[2,3-b]pyrazine-7-carboxylic acid ((S)-1-hydroxymethyl-2,2-dimethyl-propyl)-amide], the half-inhibitory concentration (IC50) is 343 nM. In the case of `C[C@H](NC(=O)c1c[nH]c2ncc(C3CC3)nc12)[C@@](C)(O)CC1CC1` [Example I-38, 2-Cyclopropyl-5H-pyrrolo[2,3-b]pyrazine-7-carboxylic acid ((1S,2S)-3-cyclopropyl-2-hydroxy-1,2-dimethyl-propyl)-amide] it was 115 nM.

Consider `CC(C)(CCO)NC(=O)c1c[nH]c2ncc(C3CC3)nc12` [Example I-42, 2-Cyclopropyl-5H-pyrrolo[2,3-b]pyrazine-7-carboxylic acid (3-hydroxy-1,1-dimethyl-propyl)-amide], for which the IC50 was determined as 131 nM.

On to `CC(C)NC(=O)c1c[nH]c2ncc(Oc3ccc4cc[nH]c4c3)nc12` [Example I-272, 2-(1H-Indol-6-yloxy)-5H-pyrrolo[2,3-b]pyrazine-7-carboxylic acid isopropylamide], for which the 50% inhibitory concentration (IC50) was 29.3 nM. Consider `Cc1ncccc1Oc1cnc2[nH]cc(C(=O)NC(C)C)c2n1` [Example I-280, 2-(2-Methyl-pyridin-3-yloxy)-5H-pyrrolo[2,3-b]pyrazine-7-carboxylic acid isopropylamide], for which the IC50 came out at 3980 nM. In the case of `C[C@H](NC(=O)c1c[nH]c2ncc(-c3ccc(C(=O)N[C@H]4C[C@@H]4c4ccccc4)s3)nc12)C(C)(C)C` [Example I-191, 2-[5-((1S,2R)-2-Phenyl-cyclopropyl-carbamoyl)-thiophen-2-yl]-5H-pyrrolo[2,3-b]pyrazine-7-carboxylic acid ((S)-1,2,2-trimethyl-propyl)-amide] it was 0.55 nM.

The record behind these values is patent US20140155376A1, “PYRROLOPYRAZINE KINASE INHIBITORS” (Hoffmann-La Roche Inc., priority 2010, published 2014).
